Results on one molecule are retold here after patent publication US11643421B2, “Process for the preparation of tricyclic PI3K inhibitor compounds and methods for using the same for the treatment of cancer” (priority 2015, dated 2023).

Data set [1] deals with CSK (Homo sapiens, UniProt P41240). The data set is described as follows: biochemical. To be noted: read-out: % inhib.
Data set [2] has as its system high-grade gliomas. The data set is described as follows: Phase I study, exploratory MRI. In kind it is in vivo, human. To be noted: 34 patients, Ktrans, cerebral blood volume, apparent diffusion coefficient. The protocol: Thirty-four patients were evaluated by exploratory magnetic resonance imaging (“MRI”). […] The Ktrans changes were within the likely noise range of the measurement (based on variability in low-exposure cohorts).

Data set [3] concerns the target PAK1 (Homo sapiens, UniProt Q13153). Nature of the data set: biochemical. To be noted: read-out: % inhib.
Data set [4] deals with GCK (Homo sapiens, UniProt Q12851). Nature of the data set: biochemical. To be noted: read-out: % inhib.
Data set [5] deals with pAKT. Nature of the data set: PI3K pathway modulation in GS2 tumors, western blot. The settings on record: 15 mg/kg PO daily 4 weeks.
Method: Each brain was dissected to separate the tumor from the healthy tissues. […] The GS2 tumors isolated from the brains were processed and the PI3K pathway markers pAkt, pS6 and p4EBP1 were measured as described previously.
For data set [6], the target named is EphA4 (Homo sapiens, UniProt P54764). The data set is described as follows: biochemical. The settings on record: read-out: % inhib.
Data set [7] is described as follows: MALDI imaging of brain distribution, U87 orthotopic model. In kind it is in vivo, female nude mice. To be noted: 15 mg/kg PO, 1 hour post dose. As to the method:
Mice were euthanized at 1 and 6 hours post-dose via exsanguination by perfusion under anesthesia. Brains were excised, flash frozen in liquid N2 and stored in a −80° C. freezer until analyzed. Fresh frozen tissue sections were obtained on a cryomicrotome (Leica CM3050S, Buffalo Grove, Ill.) at 12 μm thickness and thaw-mounted onto indium tin oxide coated glass slides (Bruker Daltonics, Billerica, Mass.). Tissue sections were an analyzed by imaging MALDI MS, providing signal intensities (and not absolute quantitation), followed by cresyl violet staining for histological interrogation.
For MALDI MAS analysis, a 40 mg/mL solution of 2,5-dihydroxybenzoic acid (Sigma-Aldrich, St. Louis, Mo.) was prepared in methanol:water (70:30 v/v). […] Matrix solution was homogenously spray-coated onto the tissue using a HTX TM-Sprayer (HTX technologies. Chapel Hill, N.C.). Matrix-coated tissue sections were transferred to the MALDI mass spectrometer (SolariX 7T FT-ICR, Bruker Daltonics, Bremen, Germany) for imaging analysis. […] Laser intensity and number of shots were optimized for sensitivity of the parent drug (1200 shots) with ion detection collected over the mass range of m/z 150-3000.
Following completion of the imaging experiments, matrix coaling was removed by rinsing the glass slide in 100% methanol for 30 seconds or until the entire matrix was visibly removed. […] Microscope images were obtained on an Olympus BX51 (Tokyo, Japan) at 10× magnification and stitched using MicroSuite Analytical v3.0 software (Olympus, Tokyo, Japan). Subsequently, stained images were co-registered to the optical images in FlexImaging for visualization and annotation of tumor and non-tumor regions for the drug images.
To assess drug distribution, imaging MALDI MS data from U87 and GS2 tumor models were co-registered to the cresyl violet stained microscope images in FlexImaging Regions of interest (ROIs) that were selected based on the anatomical features defined in the histological image including tumor and non-tumor regions. Drug intensity for each pixel within the defined ROI was extracted and exported. […] Histogram plots were created in GraphPad Prism 5 to visualize the distribution of pixel intensity frequencies.

Data set [8] addresses MSK2 (Homo sapiens, UniProt O75676). The data set is described as follows: biochemical. To be noted: read-out: % inhib.
Data set [9] relates to high-grade gliomas. The data set is described as follows: Phase I study, FDG-PET tumor response. The class given is in vivo, human. The settings on record: 27 patients who underwent FDG-PET imaging.
Method: Tumor response was determined by either an assessment of FDG-PET or by Response Assessment in Neuro-Oncology (RANO).
The outcome measure for this objective was based on the maximum standard uptake value (SUVmax) of up to five lesions. The tumor regions of interest (ROIs) were identified for each patient on pretreatment PET imaging and corresponded to a subset of the target lesions used for analysis of the patient's pretreatment tumor assessment scans. […] Specifically, the SUVmax of each ROI on the on-treatment scans was compared with its SUVmax on the corresponding pretreatment scan and the percent change was determined. In the event of more than one ROI, the overall percent change in SUVmax was the arithmetic mean of the percent changes in SUVmax for each of the ROIs (mSUVmax). PET response is defined as follows. Progressive disease (PET-PD): percent increase of >20% in mSUVmax or the development of a new lesion with an SUVmax above background and not explained by another cause (e.g., infection). Stable disease (PET-SD): percent increase of ≤20% in mSUVmax or a percent decrease of ≤20% in mSUVmax. Partial response (PET-PR): percent decrease of >20% in mSUVmax. […]
Reduction in ^18F-FDG uptake measured by PET is indicative of reduced glucose metabolism activity, a likely PD response of PI3K pathway inhibition.
The target of data set [10] is CaMKII_beta (Homo sapiens, UniProt Q13554). Nature of the data set: biochemical. The settings on record: read-out: % inhib.
Data set [11] has as its target Flt1 (Homo sapiens, UniProt P17948). The data set is described as follows: biochemical. The settings on record: read-out: % inhib.
For data set [12], the target named is PI4Ka (Homo sapiens, UniProt P42356). The data set is described as follows: biochemical. The settings on record: read-out: % inhib.
In data set [13] the test system is pAKT. Nature of the data set: pAKT/tAKT in normal brain tissue. The class given is in vivo, female CD-1 mice. As to the method: The effect of compound IIIat on pAKT in normal brain tissue, expressed as the ratio of phosphorylated AKT (pAKT) to total AKT (tAKT) was evaluated. […] In the evaluation, female CD-1 mice were administered a single PO dose of the indicated compound. Brains and plasma were collected at the indicated time post-dose, from 3 animals at each time point. Individual brains were split in half for PD analysis and compound concentration measurement. The samples were stored at −70° C. and analyzed for total concentration. For PD analysis, cell extraction buffer (Invitrogen, Camarillo, Calif.) containing 10 mM Tris pH 7.4, 100 mM NaCl, 1 mM EDTA, 1 mM EGTA, 1 mM NaF, 20 mM Na4P2O7, 2 mM Na3VO4, 1% Triton X-100, 10% glycerol, 0.1% SDS, and 0.5% deoxycholate was supplemented with phosphatase, protease inhibitors (Sigma, St. Louis, Mo.) and 1 mM PMSF and added to frozen brain biopsies. […] Protein concentration was determined using BCA protein assay (Pierce, Rockford, Ill.). […] Licor Odyssey Infrared detection system (Licor, Lincoln, Nebr.) was used to assess and quantify protein expression. PI3K pathway markers were evaluated by immunoblotting using antibodies against pAkt^ser473 and total Akt (Invitrogen, Camarillo, Calif. and Cell Signaling, Danvers, Mass.). Inhibition of pAkt (%) was calculated by comparing pAkt signal with that measured in untreated mice.

The target of data set [14] is Abl (Homo sapiens, UniProt P00519). Nature of the data set: biochemical. To be noted: read-out: % inhib.
In data set [15] the target is AKT1 (Homo sapiens, UniProt P31749). The data set is described as follows: biochemical. To be noted: read-out: % inhib.
Data set [16] concerns the target PhK_gamma2 (Homo sapiens, UniProt P15735). The data set is described as follows: biochemical. The settings on record: read-out: % inhib.
Data set [17] deals with Fyn (Homo sapiens, UniProt P06241). Nature of the data set: biochemical. The settings on record: read-out: % inhib.
Sequence of Fyn (P06241 whole entry): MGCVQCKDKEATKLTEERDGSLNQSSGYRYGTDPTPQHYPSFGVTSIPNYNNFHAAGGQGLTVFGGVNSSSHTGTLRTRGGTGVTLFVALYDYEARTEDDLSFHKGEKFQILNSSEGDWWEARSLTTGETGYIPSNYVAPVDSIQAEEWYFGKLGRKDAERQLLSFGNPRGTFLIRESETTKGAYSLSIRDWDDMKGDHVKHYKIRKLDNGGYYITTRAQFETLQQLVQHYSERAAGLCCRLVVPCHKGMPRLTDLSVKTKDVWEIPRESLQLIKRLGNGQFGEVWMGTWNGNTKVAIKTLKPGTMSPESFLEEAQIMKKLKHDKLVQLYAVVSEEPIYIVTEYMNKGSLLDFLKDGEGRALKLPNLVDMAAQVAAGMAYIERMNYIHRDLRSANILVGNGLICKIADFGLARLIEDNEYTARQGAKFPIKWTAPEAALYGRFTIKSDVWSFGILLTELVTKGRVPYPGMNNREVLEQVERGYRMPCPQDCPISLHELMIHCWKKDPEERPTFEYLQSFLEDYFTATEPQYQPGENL

Sequence of EphA4 (P54764 20-986, species assumed): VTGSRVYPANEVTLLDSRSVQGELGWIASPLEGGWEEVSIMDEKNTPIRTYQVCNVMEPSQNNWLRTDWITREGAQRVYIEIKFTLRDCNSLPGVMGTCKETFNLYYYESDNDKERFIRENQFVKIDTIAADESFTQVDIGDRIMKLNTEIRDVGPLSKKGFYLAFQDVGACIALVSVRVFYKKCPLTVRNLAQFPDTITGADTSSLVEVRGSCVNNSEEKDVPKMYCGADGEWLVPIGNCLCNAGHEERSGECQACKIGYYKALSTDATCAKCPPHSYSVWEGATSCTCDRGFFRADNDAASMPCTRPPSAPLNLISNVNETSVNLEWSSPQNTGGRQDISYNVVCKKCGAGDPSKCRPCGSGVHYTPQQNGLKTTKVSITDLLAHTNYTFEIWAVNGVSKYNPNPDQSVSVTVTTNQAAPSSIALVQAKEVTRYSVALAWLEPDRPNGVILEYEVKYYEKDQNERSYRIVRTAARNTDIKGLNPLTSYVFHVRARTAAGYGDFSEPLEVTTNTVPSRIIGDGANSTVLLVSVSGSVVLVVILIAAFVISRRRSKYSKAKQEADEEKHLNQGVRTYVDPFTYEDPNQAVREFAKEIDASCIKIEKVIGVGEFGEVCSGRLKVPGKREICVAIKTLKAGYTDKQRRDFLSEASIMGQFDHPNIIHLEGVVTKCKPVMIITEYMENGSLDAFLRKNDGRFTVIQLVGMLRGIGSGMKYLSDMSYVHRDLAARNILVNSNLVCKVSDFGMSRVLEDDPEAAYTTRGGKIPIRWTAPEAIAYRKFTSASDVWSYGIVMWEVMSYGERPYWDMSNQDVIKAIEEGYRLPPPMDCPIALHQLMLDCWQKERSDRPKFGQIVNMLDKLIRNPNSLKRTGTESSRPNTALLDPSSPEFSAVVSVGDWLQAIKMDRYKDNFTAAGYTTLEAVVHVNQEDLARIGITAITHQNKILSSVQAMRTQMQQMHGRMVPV
Sequence of PhK_gamma2 (P15735 whole entry): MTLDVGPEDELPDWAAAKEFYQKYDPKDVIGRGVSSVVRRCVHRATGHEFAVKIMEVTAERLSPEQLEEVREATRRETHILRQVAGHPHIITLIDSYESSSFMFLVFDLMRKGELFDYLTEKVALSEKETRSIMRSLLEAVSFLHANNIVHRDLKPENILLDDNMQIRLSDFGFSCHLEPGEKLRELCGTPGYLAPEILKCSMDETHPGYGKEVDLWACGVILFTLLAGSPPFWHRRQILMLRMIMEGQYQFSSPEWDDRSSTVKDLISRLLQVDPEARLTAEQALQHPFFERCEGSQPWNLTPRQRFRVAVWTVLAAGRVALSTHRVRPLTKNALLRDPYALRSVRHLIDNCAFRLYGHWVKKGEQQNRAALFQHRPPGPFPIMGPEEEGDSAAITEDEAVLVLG
Sequence of CaMKII_beta (Q13554 whole entry): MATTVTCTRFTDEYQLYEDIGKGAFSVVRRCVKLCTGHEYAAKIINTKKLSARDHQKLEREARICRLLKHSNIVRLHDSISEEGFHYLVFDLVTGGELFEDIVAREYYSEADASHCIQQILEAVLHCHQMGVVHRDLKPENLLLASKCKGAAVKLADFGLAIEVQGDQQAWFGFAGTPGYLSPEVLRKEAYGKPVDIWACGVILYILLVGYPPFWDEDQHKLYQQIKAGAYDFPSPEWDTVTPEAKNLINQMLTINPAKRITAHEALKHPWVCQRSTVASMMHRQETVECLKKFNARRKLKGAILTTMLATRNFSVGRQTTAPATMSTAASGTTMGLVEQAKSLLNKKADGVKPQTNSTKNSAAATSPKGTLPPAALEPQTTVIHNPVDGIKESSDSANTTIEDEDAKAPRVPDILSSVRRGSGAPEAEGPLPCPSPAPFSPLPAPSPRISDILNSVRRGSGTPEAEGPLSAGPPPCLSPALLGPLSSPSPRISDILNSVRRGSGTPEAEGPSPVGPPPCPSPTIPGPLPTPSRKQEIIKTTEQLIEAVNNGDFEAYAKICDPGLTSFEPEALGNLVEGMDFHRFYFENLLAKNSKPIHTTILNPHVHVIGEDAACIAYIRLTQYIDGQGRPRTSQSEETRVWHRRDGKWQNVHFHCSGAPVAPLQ
Sequence of CSK (P41240 whole entry, species assumed, the tested form may be a part): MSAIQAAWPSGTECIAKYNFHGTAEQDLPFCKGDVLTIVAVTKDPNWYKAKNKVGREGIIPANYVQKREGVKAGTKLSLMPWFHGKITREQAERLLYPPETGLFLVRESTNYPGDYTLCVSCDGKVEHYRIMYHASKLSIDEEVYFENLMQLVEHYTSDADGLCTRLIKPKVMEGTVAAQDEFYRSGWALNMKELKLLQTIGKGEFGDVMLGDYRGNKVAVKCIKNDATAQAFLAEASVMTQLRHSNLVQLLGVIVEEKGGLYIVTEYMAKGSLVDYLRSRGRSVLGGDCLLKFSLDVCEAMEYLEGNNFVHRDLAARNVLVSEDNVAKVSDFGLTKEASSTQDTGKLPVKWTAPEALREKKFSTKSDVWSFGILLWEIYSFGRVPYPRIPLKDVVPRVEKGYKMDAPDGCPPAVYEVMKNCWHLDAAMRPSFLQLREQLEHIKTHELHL
Sequence of GCK (Q12851 whole entry): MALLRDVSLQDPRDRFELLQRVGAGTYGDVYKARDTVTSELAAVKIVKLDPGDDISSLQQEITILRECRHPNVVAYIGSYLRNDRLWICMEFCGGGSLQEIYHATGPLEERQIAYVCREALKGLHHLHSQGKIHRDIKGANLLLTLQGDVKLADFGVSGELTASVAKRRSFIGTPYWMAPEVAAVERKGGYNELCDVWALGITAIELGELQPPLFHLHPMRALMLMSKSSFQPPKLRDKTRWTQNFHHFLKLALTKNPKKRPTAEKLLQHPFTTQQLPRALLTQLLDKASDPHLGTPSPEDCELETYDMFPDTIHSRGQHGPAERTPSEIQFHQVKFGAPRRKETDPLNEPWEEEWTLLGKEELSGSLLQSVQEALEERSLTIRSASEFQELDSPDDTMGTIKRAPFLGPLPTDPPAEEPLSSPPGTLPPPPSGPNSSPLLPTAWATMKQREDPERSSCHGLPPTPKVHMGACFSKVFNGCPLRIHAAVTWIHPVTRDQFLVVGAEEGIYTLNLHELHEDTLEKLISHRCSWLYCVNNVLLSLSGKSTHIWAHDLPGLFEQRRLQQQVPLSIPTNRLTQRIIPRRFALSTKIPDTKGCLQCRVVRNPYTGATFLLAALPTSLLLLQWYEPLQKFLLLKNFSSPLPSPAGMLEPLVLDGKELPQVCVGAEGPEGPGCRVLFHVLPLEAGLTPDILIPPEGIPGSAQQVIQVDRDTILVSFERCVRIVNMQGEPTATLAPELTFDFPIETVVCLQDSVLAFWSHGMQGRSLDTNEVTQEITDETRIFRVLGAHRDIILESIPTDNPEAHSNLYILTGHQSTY
Sequence of Abl (P00519 whole entry, species assumed): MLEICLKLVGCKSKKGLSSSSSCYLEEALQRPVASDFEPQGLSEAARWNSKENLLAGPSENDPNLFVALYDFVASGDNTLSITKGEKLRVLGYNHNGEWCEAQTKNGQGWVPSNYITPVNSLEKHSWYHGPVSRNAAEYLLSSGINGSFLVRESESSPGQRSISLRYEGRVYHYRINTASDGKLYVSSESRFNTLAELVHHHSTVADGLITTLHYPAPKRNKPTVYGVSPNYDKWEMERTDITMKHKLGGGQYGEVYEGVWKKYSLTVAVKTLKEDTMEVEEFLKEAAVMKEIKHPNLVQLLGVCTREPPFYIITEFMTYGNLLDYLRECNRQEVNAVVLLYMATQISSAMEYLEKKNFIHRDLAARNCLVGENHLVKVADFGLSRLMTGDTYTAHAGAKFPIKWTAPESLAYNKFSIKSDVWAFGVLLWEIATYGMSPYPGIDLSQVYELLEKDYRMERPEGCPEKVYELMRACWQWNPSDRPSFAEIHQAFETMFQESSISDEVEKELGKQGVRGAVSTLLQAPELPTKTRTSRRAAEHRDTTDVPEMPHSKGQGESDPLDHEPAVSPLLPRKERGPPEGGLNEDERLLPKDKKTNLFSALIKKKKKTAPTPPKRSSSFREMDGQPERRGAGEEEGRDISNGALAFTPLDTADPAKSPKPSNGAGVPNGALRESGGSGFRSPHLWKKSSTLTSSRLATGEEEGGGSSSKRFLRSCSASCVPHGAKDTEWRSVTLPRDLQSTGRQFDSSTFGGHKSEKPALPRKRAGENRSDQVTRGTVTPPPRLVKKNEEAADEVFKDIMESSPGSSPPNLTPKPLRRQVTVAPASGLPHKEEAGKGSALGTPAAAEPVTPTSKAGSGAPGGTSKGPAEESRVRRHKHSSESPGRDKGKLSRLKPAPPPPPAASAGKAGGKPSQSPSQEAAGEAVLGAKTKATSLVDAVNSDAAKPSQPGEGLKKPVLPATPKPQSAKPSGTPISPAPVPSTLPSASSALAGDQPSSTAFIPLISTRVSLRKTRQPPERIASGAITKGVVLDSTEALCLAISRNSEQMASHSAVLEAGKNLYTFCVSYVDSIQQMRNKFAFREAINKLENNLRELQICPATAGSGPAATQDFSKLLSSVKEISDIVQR

Take `CC1(C)OCCn2c1nc1c(N3CCOCC3)nc(-c3cnc(N)nc3)nc12` [GDC-0084, 5-(6,6-dimethyl-4-morpholino-8,9-dihydro-6H-[1,4]oxazino[3,4-e]purin-2-yl)pyrimidin-2-amine]: the inhibition at 1 µM in data set [1] was 10%; in [3] it was 7%; in [4], 0.9%; in data set [6] it was 3%; in data set [8], 0.6%; in [10], 0.2%. The inhibition at 1 µM stood at 0.6% in data set [11]; 7% in [12]; 2% in [14]; 0.7% in data set [15]; 0% in data set [16]; 9% in data set [17]. In addition, in data set [2], the “MRI derived metrics versus drug plasma exposure” value is given as “none of the MRI derived metrics (Ktrans, Cerebral blood volume, apparent diffusion coefficient) showed any significant trend with drug plasma exposure”. For the same molecule, the “reduction of pAkt levels in GS2 tumors” value in data set [5] (2 hours after final administration) turned out to be 90%; in [5] (8 hours after final administration), 70%. In addition, the “distribution in brain and intracranial tumors (MALDI images)” value in [7] (U87 and GS2 models) was “distributed readily and quite evenly throughout the brain”. In addition, the “mean pixel intensity (MALDI imaging)” value in [7] (U87 tumors) and in data set [7] (healthy brain of U87 tumor-bearing mice) was 0.54 each time. Moreover, the “patients with metabolic partial response on FDG-PET” value in data set [9] is recorded as “five”. In addition, the “patients with metabolic partial response on FDG-PET, percent” value in data set [9] was found to be 18.5%. Further, the “pAKT in normal mouse brain tissue” value in data set [13] (3 mg/kg or 10 mg/kg orally, 1 h post-dose) was “inhibited”; in data set [13] (3 mg/kg orally, 4 hours post-dose) it was “no longer resulted in inhibition of pAKT”.
